# Read-outs that look alike come from different tables or passages of the source.
# Legend:
# [1] = brain exposure of MN-08 in rats; type: in vivo, SD rats; settings: for concentration at 0.5 h / concentration at 1 h / concentration at 24 h: both sexes, Sprague-Dawley, rat, oral
# Description: Bio-distribution studies were carried out in healthy adult rats (3 males and 3 females). All rats were administered MN-08 at a single dose of 12 mg/kg by gastric gavage. Brain and plasma were collected at 0.5, 1 and 24 h post dosing. Tissue samples were homogenized and then centrifuged at 12000 rpm for 10 min. The supernatants were injected into the LC-MS/MS system for analysis of MN-08 concentration according to the method previously described (Tian et al., 2016).
# 3×Tg‐AD mice = assay: Aβ ELISA and Western blotting of APP-processing proteins in 3×Tg-AD mice; type: in vivo
# Description: Triple transgenic 3×Tg‐AD mice were acquired from Jackson Laboratory and fostered in the Shenzhen Center for Disease Control and Prevention (Shenzhen, China). Eight‐month‐old 3×Tg‐AD mice were categorized into six groups: (1) 3×Tg‐AD +Vehicle group; (2) 3×Tg‐AD +MN‐08 (3 mg/kg) group; (3) 3×Tg‐AD +MN‐08 (6 mg/kg) group; (4) 3×Tg‐AD +MN‐08 (12 mg/kg) group; (5) 3×Tg‐AD +Memantine (Mem, 5 mg/kg) group; (6) 3×Tg‐AD +Donepezil (Done, 1.3 mg/kg, once daily) group; (7) Eight‐month‐old B6129SF2/J mice as a control group. MN‐08 and memantine were given twice daily (Done, once daily) by gastric gavage for 4 months from 8 months of age.
# To evaluate the concentration of soluble and insoluble Aβ in AD mice, the hippocampus and cortex were homogenized in the lysate, which was then centrifuged at 12000 g for 30 min at 4°C. Supernatant samples were collected as soluble Aβ. Sediment of the cortex and hippocampus was resuspended with formic acid, incubated on ice for 60 min and then centrifuged at 12,000 g for 30 min at 4°C. The supernatant and Tris/NaH2PO4 buffer were mixed as insoluble Aβ. The concentration of Aβ was analyzed by ELISA kit of human amyloid β (R&D Systems, Minneapolis, MN, USA) following the manufacturer’s instructions.
# (§1) Western blotting analysis was performed as previously described with minor modifications (Huang, Li, & Nan, 2017). Proteins were extracted from hippocampal tissue and their concentrations determined by the BCA protein assay kit (Fdbio science, Hangzhou, China). The protein (20 μg) was separated on a 12% SDS-PAGE gel and then transferred to PVDF membranes. The membranes were blocked using 5 % nonfat dry milk for 2 h. The protein blots were incubated with the corresponding primary antibodies against p-Akt (#4060, 1:1000, Cell Signaling Technology), Akt (#4685, 1:1000, Cell Signaling Technology), BACE1 (#5606, 1:1000, Cell Signaling Technology), PS1 (#5643, 1:1000, Cell Signaling Technology), p-GSK3β (#5558, 1:1000, Cell Signaling Technology), GSK3β (#12456, 1:1000, Cell Signaling Technology), Bcl-2 (#3498, 1:1000, Cell Signaling Technology), Bax (#5023, 1:1000, Cell Signaling Technology), Cleaved caspase-3 (#9661, 1:1000, Cell Signaling Technology), Caspase-3 (#9662, 1:1000, Cell Signaling Technology), ADAM10 (#14194, 1:1000, Cell Signaling Technology), APP (#ab241592, 1:1000, Abcam), sAPPα (#ab126723, 1:1000, Abcam), NEP (#ab216341, 1:1000, Abcam), Synapsin I (#ab64581, 1:1000, Abcam), Synapsin II (#ab76494, 1:1000, Abcam), NR2A (#ab124913, 1:2000, Abcam), PSD95 (#ab18258, 1:1000, Abcam), Synaptophysin (#ab32127, 1:1000, Abcam), IDE (#ab133561, 1:1000, Abcam), Drebin (#ab178408, 1:1000, Abcam) and Tau-5 (#ab80579, 1:2000, Abcam) overnight at 4°C. After washing 3 times, the membranes were incubated with the respective HRP-conjugated secondary antibody. ECL Western blotting Detection Reagents (Fdbio science, Hangzhou, China) were used to perform Chemiluminescence detection. Quantitative analysis of protein bands was conducted by the Carestream system (Carestream Health, Inc, USA).
# APP/PS1 mice = assay: Western blotting and NeuN staining in hippocampi of APP/PS1 mice (Tau, synapse and apoptosis proteins); type: in vivo; settings: MN‐08 6 mg/kg
# Description: APP/PS1 transgenic mice were purchased from Jackson Laboratory and reproduced in the Shenzhen Center for Disease Control and Prevention (Shenzhen, China). Two‐month‐old APP/PS1 mice were divided into four groups: (1) APP/PS1 + Vehicle group; (2) APP/PS1 + MN‐08 (6 mg/kg) group; (3) APP/PS1 + Memantine (Mem, 5 mg/kg) group; (4) APP/PS1 + Donepezil (Done, 1.3 mg/kg, once daily) group; (5) Two‐month‐old C57BL/6J mice as a control group. The APP/PS1 mice were administered drugs twice a day (Done, once daily) by gastric gavage from ages 2 to 8 months for 6 months successively. Control and vehicle groups received equal volumes of saline.
# Immunohistochemistry and immunofluorescence staining were carried out as previously described (Zhang et al., 2017). Coronal brain sections were incubated with […] sodium citrate (pH 6.0) and heated for 15 min. After cooling to room temperature, the sections were immersed in 3 % H2O2 for 10 min followed by blocking solution (10 % fetal bovine serum, 1 % bovine serum albumin and 0.1 % Triton X-100) for 1 h. Sections were then incubated with the following appropriate primary antibodies overnight at 4°C: anti-Aβ1-42 antibody (#ab10148, 1:1000, Abcam), anti-Aβ1-16 antibody (#803014, 1:1000, Abcam) and anti-NeuN antibody (#ab177487, 1:400, Abcam). After rinsing 3 times, the sections of immunohistochemistry staining were incubated with biotin-conjugated universal secondary antibody (Gene Tech, Shanghai, China). For immunofluorescence staining, the sections were incubated with appropriate secondary antibodies for 2 h at room temperature. Image J software was used to analyze the fluorescence intensity and cell counting from six slices at similar coronal positions of each animal; this was performed by a viewer blinded to the experimental group.
# as §1, with “ECL Western blotting Detection Reagents (Fdbio science, Hangzhou, China) were used to perform Chemiluminescence detection.” left out
# [2] = MN‐08 6 mg/kg, hippocampi, Western blot
smiles,measurement,setting,value
CCC12CC3CC(N)(C1)CC(CO[N+](=O)[O-])(C3)C2 (stereo not drawn) [MN‐08],concentration in brain tissue relative to plasma,[1],much higher than that in the plasma
same,blood‐brain barrier penetration,[1]; 12 mg/kg gastric gavage,readily penetrates the blood‐brain barrier
same,mean concentration in brain,"[1]; 12 mg/kg gastric gavage, 0.5 h, 12 mg/kg",5793 ± 1033 ng/g
same,mean concentration in brain,"[1]; 12 mg/kg gastric gavage, 1 h, 12 mg/kg",10952 ± 3236 ng/g
same,mean concentration in brain,"[1]; 12 mg/kg gastric gavage, 24 h, 12 mg/kg",1661 ± 183.4 ng/g
same,concentration at 0.5 h,"[1]; brain, 12 mg/kg gastric gavage, 0.5 h, read-out: mean concentration in brain",5790 ng/g
same,concentration at 1 h,"[1]; brain, 12 mg/kg gastric gavage, 1 h, read-out: mean concentration in brain",11000 ng/g
same,concentration at 24 h,"[1]; brain, 12 mg/kg gastric gavage, 24 h, read-out: mean concentration in brain",1660 ng/g
same,concentration at 0.5 h,"[1]; 12 mg/kg, 0.5 h, assuming 1 g brain tissue is 1 ml, read-out: concentration in the brain",~19.9 µM
same,concentration at 1 h,"[1]; 12 mg/kg, 1 h, assuming 1 g brain tissue is 1 ml, read-out: concentration in the brain",~37.7 µM
same,concentration at 24 h,"[1]; 12 mg/kg, 24 h, assuming 1 g brain tissue is 1 ml, read-out: concentration in the brain",~5.71 µM
same,concentration at 0.5 h,"[1]; plasma, 12 mg/kg gastric gavage, 0.5 h, read-out: mean concentration in plasma",781 ± 99 ng/mL
same,concentration at 1 h,"[1]; plasma, 12 mg/kg gastric gavage, 1 h, read-out: mean concentration in plasma",726 ± 141 ng/mL
same,concentration at 24 h,"[1]; plasma, 12 mg/kg gastric gavage, 24 h, read-out: mean concentration in plasma",73.4 ± 23.8 ng/mL
same,Aβ accumulation (ELISA),"3×Tg‐AD mice; MN‐08 6 mg/kg, hippocampal and cortical areas",significant reduction
same,expression of total APP,3×Tg‐AD mice; [2],significantly decreased
same,expression of α‐secretase (ADAM10) and neprilysin (NEP),3×Tg‐AD mice; [2],enhanced
same,levels of sAPPα,3×Tg‐AD mice; [2],increasing
same,"expression of IDE, PS1, or BACE1","3×Tg‐AD mice; hippocampi, Western blot",no effect
same,Tau hyperphosphorylation in the hippocampi,APP/PS1 mice; prevention study,consistently suppressed
same,"expression of synapse‐related proteins (SYP, PSD95, SYN I, SYN II, drebrin)",APP/PS1 mice; prevention study,reversal of the depressed expression
same,neuronal loss in the hippocampus (NeuN),APP/PS1 mice; prevention study,prevented
same,expression ratio of Bcl‐2/Bax,APP/PS1 mice; hippocampi,upregulating
same,expression ratio of cleaved Caspase‐3 to Caspase‐3,APP/PS1 mice; hippocampi,downregulating

# From article PMC8208785, “Therapeutic efficacy of novel memantine nitrate MN‐08 in animal models of Alzheimer’s disease” (Aging Cell, 2021)
